In this experiment the test system is Mia-PaCa2 (human pancreas cancer cells). In words: Antiproliferative activity on Mia-Paca2 cells (WST1). It counts as cell-based. The note with it: MIA PaCa-2, 96 hours treatment, read-out: IC50 on the cell proliferation of Mia-Paca2 lines. The method, then:
ii) Characterization of the Antiproliferative Activity:
By way of example, the effect of a treatment on two human cell lines Mia-Paca2 and DU145 with the compounds of the examples described previously will be studied. The cell lines DU145 (human prostate cancer cells) and Mia-PaCa2 (human pancreas cancer cells) were acquired from the American Tissue Culture Collection (Rockville, Md., USA). The cells placed in 80 μl of Dulbecco's Modified Eagle's medium (Gibco-Brl, Cergy-Pontoise, France) completed with 10% foetal calf serum inactivated by heating (Gibco-Brl, Cergy-Pontoise, France), 50,000 units/l of penicillin and 50 mg/l of streptomycin (Gibco-Brl, Cergy-Pontoise, France), and 2 mM of glutamine (Gibco-Brl, Cergy-Pontoise, France) were seeded on a 96-well plate on day 0. The cells were treated on day 1 for 96 hours with increasing concentrations of each of the compounds to be tested up to 10 μM. At the end of this period, quantification of cell proliferation is evaluated by a colorimetric test based on the cleavage of the tetrazolium salt WST1 by the mitochondrial dehydrogenases in viable cells leading to the formation of formazan (Boehringer Mannheim, Meylan, France). These tests are carried out in duplicate with 8 determinations per concentration tested. For each compound to be tested, the values included in the linear part of the sigmoid were retained for a linear regression analysis and used to estimate the inhibitory concentration IC50. The products are solubilized in dimethylsulphoxide (DMSO) at 10^−2 M and finally used in culture with 0.1% DMSO.

The source of these data is US20060281736A1, “Product comprising at least one phosphatase cdc25 inhibitor combined with at least one other anticancer agent” (priority 2003, published 2006).

Where a name gives a salt, the structure may show the parent alone.

For `Cc1nc2c(s1)C(=O)C=C(NCCN1CCOCC1)C2=O` [Example 1, 2-methyl-5-{[2-(4-morpholinyl)ethyl]amino}-1,3-benzothiazole-4,7-dione], the IC50 is no more than 10 µM.

In the case of `Cc1nc2c(s1)C(=O)C=C(NCCN(C)C)C2=O` [Example 2, 5-{[2-(dimethylamino)ethyl]amino}-2-methyl-1,3-benzothiazole-4,7-dione hydrochloride], the IC50 is no more than 10 µM.

In the case of `Cc1nc2c(s1)C(=O)C=C(NCCCCCCN(C)C)C2=O` [Example 3, 5-{[6-(dimethylamino)hexyl]amino}-2-methyl-1,3-benzothiazole-4,7-dione], the IC50 was no more than 10 µM.

In the case of `Cc1nc2c(s1)C(=O)C=C(NCC(C)(C)CN(C)C)C2=O` [Example 4, 5-{[3-(dimethylamino)-2,2-dimethylpropyl]amino}-2-methyl-1,3-benzothiazole-4,7-dione], the IC50 is no more than 10 µM.

With `Cc1nc2c(s1)C(=O)C=C(NCCCN1CCN(C)CC1)C2=O` [Example 5, 2-methyl-5-{[3-(4-methyl-1-piperazinyl)propyl]amino}-1,3-benzothiazole-4,7-dione], the IC50 is no more than 10 µM.

`CCCCCC(CC)NC1=CC(=O)c2sc(C)nc2C1=O` (stereo not drawn) [Example 6, 5-[(1-ethylhexyl)amino]-2-methyl-1,3-benzothiazole-4,7-dione]: the IC50 was no more than 10 µM.

As to `Cc1nc2c(s1)C(=O)C=C(NCC13CC4CC(CC(C4)C1)C3)C2=O` [Example 7, 5-[(1-adamantylmethyl)amino]-2-methyl-1,3-benzothiazole-4,7-dione], the IC50 was no more than 10 µM.

For `Cc1nc2c(s1)C(=O)C=C(NCc1cccs1)C2=O` [Example 8, 2-methyl-5-[(2-thienylmethyl)amino]-1,3-benzothiazole-4,7-dione], the IC50 is no more than 10 µM.

Take `Cc1nc2c(s1)C(=O)C=C(NCc1cccc(Cl)c1)C2=O` [Example 9, 5-[(3-chlorobenzyl)amino]-2-methyl-1,3-benzothiazole-4,7-dione]: the IC50 was no more than 10 µM.

On to `Cc1nc2c(s1)C(=O)C=C(N1CCN(Cc3ccccc3)CC1)C2=O` [Example 14, 5-(4-benzyl-1-piperazinyl)-2-methyl-1,3-benzothiazole-4,7-dione], for which the IC50 was no more than 10 µM.

In the case of `COCCNC1=CC(=O)c2sc(C)nc2C1=O` [Example 18, 5-[(2-methoxyethyl)amino]-2-methyl-1,3-benzothiazole-4,7-dione], the IC50 was no more than 10 µM.

Turning to `Cc1nc2c(s1)C(=O)C=C(NCCN1CCCC1)C2=O` [Example 19, 2-methyl-5-[(2-pyrrolidin-1-ylethyl)amino]-1,3-benzothiazole-4,7-dione], the IC50 is no more than 10 µM.

For `Cc1nc2c(s1)C(=O)C=C(NCCN1CCCCC1)C2=O` [Example 20, 2-methyl-5-[(2-piperidin-1-ylethyl)amino]-1,3-benzothiazole-4,7-dione], the IC50 was no more than 10 µM.

For `Cc1nc2c(s1)C(=O)C=C(NCCN(C(C)C)C(C)C)C2=O` [Example 21, 5-{[2-(diisopropylamino)ethyl]amino}-2-methyl-1,3-benzothiazole-4,7-dione], the IC50 was no more than 10 µM.

On to `Cc1nc2c(s1)C(=O)C=C(NC1CCN(Cc3ccccc3)C1)C2=O` (stereo not drawn) [Example 22, 5-[(1-benzylpyrrolidin-3-yl)amino]-2-methyl-1,3-benzothiazole-4,7-dione], for which the IC50 was no more than 10 µM.

Consider `Cc1nc2c(s1)C(=O)C=C(NCCCN(C)C)C2=O` [Example 23, 5-{[3-(dimethylamino)propyl]amino}-2-methyl-1,3-benzothiazole-4,7-dione], for which the IC50 is no more than 10 µM.

For the molecule `Cc1nc2c(s1)C(=O)C=C(NCCC1CCCN1C)C2=O` (stereo not drawn) [Example 24, 2-methyl-5-{[2-(1-methylpyrrolidin-2-yl)ethyl]amino}-1,3-benzothiazole-4,7-dione], the IC50 is no more than 10 µM.

Regarding `Cc1nc2c(s1)C(=O)C=C(NCCCN1CCCCC1C)C2=O` (stereo not drawn) [Example 25, 2-methyl-5-{[3-(2-methylpiperidin-1-yl)propyl]amino)-1,3-benzothiazole-4,7-dione], the IC50 was no more than 10 µM.

In the case of `Cc1nc2c(s1)C(=O)C=C(NCCCCN(C)C)C2=O` [Example 26, 5-{[4-(dimethylamino)butyl]amino}-2-methyl-1,3-benzothiazole-4,7-dione], the IC50 is no more than 10 µM.

For `Cc1nc2c(s1)C(=O)C=C(NCCCCCN(C)C)C2=O` [Example 27, 5-{[5-(dimethylamino)pentyl]amino}-2-methyl-1,3-benzothiazole-4,7-dione], the IC50 was no more than 10 µM.

`Cc1nc2c(s1)C(=O)C=C(NC1CCc3ccccc31)C2=O` (stereo not drawn) [Example 28, 5-(2,3-dihydro-1H-inden-1-ylamino)-2-methyl-1,3-benzothiazole-4,7-dione]: the IC50 is no more than 10 µM.

As for `Cc1nc2c(s1)C(=O)C=C(N(CCN(C)C)Cc1ccccc1)C2=O` [Example 29, 5-{benzyl[2-(dimethylamino)ethyl]amino}-2-methyl-1,3-benzothiazole-4,7-dione], the IC50 was no more than 10 µM.

For `Cc1nc2c(s1)C(=O)C=C(NCCCN(C)C(=O)OC(C)(C)C)C2=O` [Example 30, tert-butyl methyl{3-[(2-methyl-4,7-dioxo-4,7-dihydro-1,3-benzothiazol-5-yl)amino]propyl}carbamate], the IC50 is no more than 10 µM.

For the molecule `Cc1nc2c(s1)C(=O)C=C(NCCCNC(=O)OC(C)(C)C)C2=O` [Example 31, tert-butyl 3-[(2-methyl-4,7-dioxo-4,7-dihydro-1,3-benzothiazol-5-yl)amino]propylcarbamate], the IC50 was no more than 10 µM.

Turning to `CNCCCNC1=CC(=O)c2sc(C)nc2C1=O` [Example 32, 2-methyl-5-{[3-(methylamino)propyl]amino}-1,3-benzothiazole-4,7-dione hydrochloride], the IC50 is no more than 10 µM.

As to `Cc1nc2c(s1)C(=O)C(Cl)=C(NCCN(C)C)C2=O` [Example 34, 6-chloro-5-{[2-(dimethylamino)ethyl]amino}-2-methyl-1,3-benzothiazole-4,7-dione], the IC50 was no more than 10 µM.

As to `CCCCSC1=C(NCCN(C)C)C(=O)c2nc(C)sc2C1=O` [Example 36, 6-(butylthio)-5-{[2-(dimethylamino)ethyl]amino}-2-methyl-1,3-benzothiazole-4,7-dione], the IC50 is no more than 10 µM.

For the molecule `CN(C)CCNC1=CC(=O)c2sc(CN3CCOCC3)nc2C1=O` [Example 37, 5-{[2-(dimethylamino)ethyl]amino}-2-(morpholin-4-ylmethyl)-1,3-benzothiazole-4,7-dione], the IC50 is no more than 10 µM.

With `CN(C)CCNC1=CC(=O)c2sc(CN3CCN(c4ccccc4)CC3)nc2C1=O` [Example 38, 5-{1[2-(dimethylamino)ethyl]amino}-2-[(4-phenylpiperazin-1-yl)methyl]-1,3-benzothiazole-4,7-dione], the IC50 was no more than 10 µM.

As to `CN(C)CCNC1=CC(=O)c2sc(CN3CCCCC3)nc2C1=O` [Example 39, 5-{[2-(dimethylamino)ethyl]amino}-2-(piperidin-1-ylmethyl)-1,3-benzothiazole-4,7-dione], the IC50 was no more than 10 µM.
